# Molecular target: T1, human GPR40 (Homo sapiens, UniProt O14842)
# T1 construct: expressed in transfected cells; host or cells: CHO cells
# Assay: Cell-based aequorin assay using human GPR40
# Details: CHO cells transfected with GPR40 and aequorin expression vectors; aequorin luminescence; activation of human GPR40; read-out: Relative EC50
# Method: A cell-based aequorin assay may be employed to characterize the modulatory activity of compounds on the GPR40 signaling pathway. In an exemplary assay, CHO cells are transfected in a 15 cm plated containing 14 million cells with 5 μg of GPR40 expression vector and 5 μg of Aequorin expression vector (Euroscreen) using Lipofectamine 2000 (Invitrogen). After 17-24 hours post-transfection, cells are washed with phosphate buffered saline (PBS) and detached from the tissue culture dish with 2 mL of trypsin (0.25%(w/v)). Trypsinization is halted with 28 mL of Hanks Buffered Salt Solution containing 20 mM Hepes (H/HBSS) and 0.01% fatty acid-free bovine serum albumin (BSA) or 0.625% fatty acid-free human serum albumin (HSA). Coelantrazine is added to 1 ug/mL and the cells are incubated for 2 hours at room temperature. Cells are gently mixed every 15 minutes. Compounds are dissolved in dimethyl sulfoxide for preparation of 10 mM stock solutions. Compounds are diluted in H/HBSS containing either 0.01% BSA or 0.625% HSA. Serial dilutions of the test compounds are prepared to determine dose response. Aequorin luminescence measurements are made using an EG&G Berthold 96-well luminometer and the response is measured over a 20 second interval after cells and compounds are mixed. The area-under-curve from 2-20 seconds is plotted to determine dose response. The EC50 (effective concentration to reach 50% maximal response) is determined from the dose response plot. Table 1 includes representative data (EC50 values) obtained for exemplary compounds of the invention for the relative activation of human GPR40. […] Therefore, in some embodiments, the invention provides any of the compounds listed in Table 1 individually or as members of a group and pharmaceutically acceptable salts, esters, solvates, tautomers, stereoisomers, and/or prodrugs thereof.
# T1 sequence (O14842 whole entry): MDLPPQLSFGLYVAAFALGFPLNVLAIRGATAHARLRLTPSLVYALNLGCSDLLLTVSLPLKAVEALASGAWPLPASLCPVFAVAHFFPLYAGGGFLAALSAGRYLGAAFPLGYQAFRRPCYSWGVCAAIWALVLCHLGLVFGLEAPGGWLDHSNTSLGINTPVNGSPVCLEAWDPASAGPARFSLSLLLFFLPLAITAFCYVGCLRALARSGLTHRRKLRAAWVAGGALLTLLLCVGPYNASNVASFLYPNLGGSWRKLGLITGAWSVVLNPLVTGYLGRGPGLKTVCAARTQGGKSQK
row,Structure (SMILES),EC50
1,"CCCCOc1ccc(C)cc1-c1ccc(COc2ccc3c(c2)CCCC3CC(=O)O)cc1 (racemic) [Example 1, (R/S)-[6-(2′-Butoxy-5′-methyl-biphenyl-4-ylmethoxy)-1,2,3,4-tetrahydro-naphthalen-1-yl]-acetic acid]",100 to 1000 nM
2,"CCCCOc1ccc(C)cc1-c1ccc(COc2ccc3c(c2)CCC3CC(=O)O)cc1 (racemic) [Example 11, (R/S)-[5-(2′-Butoxy-5′-methyl-biphenyl-4-ylmethoxy)-indan-1-yl]-acetic acid]",100 to 1000 nM
3,"CCCCOc1ccc(C)cc1-c1ccc(COc2ccc3c(c2)CCC(C(=O)O)C3)cc1 (racemic) [Example 29, (R/S)-6-(2′-Butoxy-5′-methyl-biphenyl-4-ylmethoxy)-1,2,3,4-tetrahydro-naphthalene-2-carboxylic acid]",100 to 1000 nM
4,CCCCOc1ccc(C)cc1-c1ccc(COc2ccc3c(c2)OCC(=C(C)C)C3CC(=O)O)cc1 (racemic) [Example 39],100 to 1000 nM
5,"O=C(O)CC1c2ccc(OCc3cccc(-c4ccc(C(F)(F)F)cc4)c3)cc2OCc2conc21 (racemic) [Example 71, (R/S)-(7-(((4′-(trifluoromethyl)-1,1′-biphenyl-3-yl)methyl)oxy)-4H,10H-[l]benzoxepino[4,3-c]isoxazol-10-yl)acetic acid]",1000 to 10000 nM
6,"CCOc1ccc(F)c(-c2ccc(COc3ccc4c(c3)CCC(C(=O)O)C4)cc2)c1 (racemic) [Example 72, (R/S)-6-(((5′-(ethoxy)-2′-fluoro-1,1′-biphenyl-4-yl)methyl)oxy)-1,2,3,4-tetrahydro-2-naphthalenecarboxylic acid]",1000 to 10000 nM
7,"CCOc1ccc(F)c(-c2ccc(COc3ccc4c(c3)CCCC4CC(=O)O)cc2)c1 (stereo in doubt) [Example 60, (S)-[6-(5′-Ethoxy-2′-fluoro-biphenyl-4-ylmethoxy)-1,2,3,4-tetrahydro-naphthalen-1-yl]-acetic acid]",1000 to 10000 nM
8,O=C(O)C[C@H]1CCCc2cc(OCc3cccc(-c4ccc(C(F)(F)F)cc4)c3)ccc21 [Example 6],1000 to 10000 nM
9,COc1ccc(COc2ccc3c(c2)CCCC3CC(=O)O)cc1 (stereo not drawn) [Example 9],1000 to 10000 nM
10,O=C(O)CC1CCc2cc(OCc3cccc(-c4ccc(C(F)(F)F)cc4)c3)ccc21 (stereo not drawn) [Example 15],1000 to 10000 nM
11,CCOc1cccc(-c2ccc(COc3ccc4c(c3)C(CC(=O)O)CCC4)cc2)c1 (stereo not drawn) [Example 16],1000 to 10000 nM
12,Cc1ccc(-c2nc(C)c(COc3ccc4c(c3)C(CC(=O)O)CCC4)s2)cc1 (stereo not drawn) [Example 17],1000 to 10000 nM
13,CCCCOc1ccc(C)cc1-c1ccc(COc2ccc3c(c2)C(CC(=O)O)CCC3)cc1 (stereo not drawn) [Example 18],1000 to 10000 nM
14,CCOc1ccccc1-c1ccc(COc2ccc3c(c2)C(CC(=O)O)CCC3)cc1 (stereo not drawn) [Example 19],1000 to 10000 nM
15,O=C(O)CC1CCc2ccc(OCc3cccc(-c4ccc(C(F)(F)F)cc4)c3)cc2C1 (stereo not drawn) [Example 20],1000 to 10000 nM
16,CCCCOc1ccc(C)cc1-c1ccc(COc2ccc3c(c2)CC(CC(=O)O)CC3)cc1 (stereo not drawn) [Example 21],1000 to 10000 nM
17,O=C(O)C1CCc2cc(OCCOc3cccc(C(F)(F)F)c3)ccc2C1 (stereo not drawn) [Example 30],1000 to 10000 nM
18,O=C(O)C1CCc2cc(OCc3cccc(-c4ccc(C(F)(F)F)cc4)c3)ccc2C1 (stereo not drawn) [Example 31],1000 to 10000 nM
19,"O=C(O)C(F)(F)C1CCCc2cc(OCc3cccc(-c4ccc(C(F)(F)F)cc4)c3)ccc21 (stereo not drawn) [Example 32, Difluoro-[6-(4′-trifluoromethyl-biphenyl-3-ylmethoxy)-1,2,3,4-tetrahydro-naphthalen-1-yl]-acetic acid]",1000 to 10000 nM
20,Cc1ccc(-c2nc(C)c(COc3ccc4c(c3)CCCC4C(F)(F)C(=O)O)s2)cc1 (stereo not drawn) [Example 33],1000 to 10000 nM

# Now from value to compound:
row,EC50,Structure (SMILES)
1,1000 to 10000 nM,CC1CCc2cc(OCc3cccc(-c4ccc(C(F)(F)F)cc4)c3)ccc2C1CC(=O)O (mixture of isomers) [Example 22]
2,1000 to 10000 nM,CCCCOc1ccc(C)cc1-c1ccc(COc2ccc3c(c2)CCC(C)C3CC(=O)O)cc1 (mixture of isomers) [Example 23]
3,1000 to 10000 nM,Cc1ccc(-c2nc(C)c(COc3ccc4c(c3)CCC(C)C4CC(=O)O)s2)cc1 (mixture of isomers) [Example 24]
4,1000 to 10000 nM,CCCCOc1ccc(C)cc1-c1ccc(COc2ccc3c(c2)CC(C)C3CC(=O)O)cc1 (mixture of isomers) [Example 25]
5,1000 to 10000 nM,CC1Cc2cc(OCc3cccc(-c4ccc(C(F)(F)F)cc4)c3)ccc2C1CC(=O)O (mixture of isomers) [Example 26]
6,1000 to 10000 nM,CCOc1ccccc1-c1ccc(COc2ccc3c(c2)CC(C)C3CC(=O)O)cc1 (mixture of isomers) [Example 27]
7,1000 to 10000 nM,Cc1ccc(-c2nc(C)c(COc3ccc4c(c3)CC(C)C4CC(=O)O)s2)cc1 (mixture of isomers) [Example 28]
8,100 to 1000 nM,C=C1COc2cc(OCc3ccc(-c4cc(C)ccc4OCCCC)cc3)ccc2C1CC(=O)O (racemic) [Example 35]
9,100 to 1000 nM,CCCCOc1ccc(C)cc1-c1ccc(COc2ccc3c(c2)OCC(C)C3CC(=O)O)cc1 (racemic) [Example 40]
10,100 to 1000 nM,"C=C1CCOc2cc(OCc3ccccc3)ccc2C1CC(=O)O (racemic) [Example 43, (R/S)-2-(8-(benzyloxy)-4-methylene-2,3,4,5-tetrahydrobenzo[b]oxepin-5-yl)acetic acid]"
11,1000 to 10000 nM,"C=C(c1ccc(-c2ccccc2)cc1)c1ccc2c(c1)CCCC2CC(=O)O (racemic) [Example 44, (R/S)-[6-(1-Biphenyl-4-yl-vinyl)-1,2,3,4-tetrahydro-naphthalen-1-yl]-acetic acid]"
12,1000 to 10000 nM,"C=C(c1ccc(Oc2ccccc2)cc1)c1ccc2c(c1)CCCC2CC(=O)O (racemic) [Example 45, (R/S)-{6-[1-(4-Phenoxy-phenyl)-vinyl]-1,2,3,4-tetrahydro-naphthalen-1-yl}-acetic acid]"
13,1000 to 10000 nM,"Cc1cc(Cl)ccc1-c1cccc(COc2ccc3c(c2)C(=O)NC3CC(=O)O)c1 (racemic) [Example 66, (R/S)-(5-(((4′-chloro-2′-methyl-1,1′-biphenyl-3-yl)methyl)oxy)-3-oxo-2,3-dihydro-1H-isoindol-1-yl)acetic acid]"
14,100 to 1000 nM,"Cc1cc(Cl)ccc1-c1cccc(COc2ccc3c(c2)C(=O)N(C)C3CC(=O)O)c1 (racemic) [Example 67, (R/S)-(5-(((4′-chloro-2′-methyl-1,1′-biphenyl-3-yl)methyl)oxy)-2-methyl-3-oxo-2,3-dihydro-1H-isoindol-1-yl)acetic acid]"
15,1000 to 10000 nM,Cc1c(Cl)cccc1-c1cccc(COc2ccc3c(c2)C(=O)NC3CC(=O)O)c1 (racemic) [Example 68]
16,100 to 1000 nM,"Cc1c(Cl)cccc1-c1cccc(COc2ccc3c(c2)C(=O)N(C)C3CC(=O)O)c1 (racemic) [Example 69, (R/S)-(5-(((3′-chloro-2′-methyl-1,1′-biphenyl-3-yl)methyl)oxy)-2-methyl-3-oxo-2,3-dihydro-1H-isoindol-1-yl)acetic acid]"
17,1000 to 10000 nM,"CN1C(=O)c2cc(OCc3cccc(-c4ccc(C(F)(F)F)cc4)c3)ccc2C1CC(=O)O (racemic) [Example 70, (R/S)-(2-methyl-3-oxo-5-(((4′-(trifluoromethyl)-1,1′-biphenyl-3-yl)methyl)oxy)-2,3-dihydro-1H-isoindol-1-yl)acetic acid]"
18,100 to 1000 nM,"CCOc1ccccc1-c1ccc(COc2ccc3c(c2)CCCC3CC(=O)O)cc1 (stereo not drawn) [Example 2, [6-(2′-Ethoxy-biphenyl-4-ylmethoxy)-1,2,3,4-tetrahydro-naphthalen-1-yl]-acetic acid]"
19,100 to 1000 nM,"O=C(O)C[C@@H]1CCCc2cc(OCc3cccc(-c4ccc(C(F)(F)F)cc4)c3)ccc21 [Example 3, [(S)-6(4′-Trifluoromethyl-biphenyl-3-ylmethoxy)-1,2,3,4-tetrahydro-naphthalen-1-yl]-acetic acid]"
20,< 100 nM,CCCCOc1ccc(C)cc1-c1ccc(COc2ccc3c(c2)CCC[C@H]3CC(=O)O)cc1 [Example 4]
21,< 100 nM,Cc1ccc(-c2nc(C)c(COc3ccc4c(c3)CCC[C@H]4CC(=O)O)s2)cc1 [Example 5]
22,< 100 nM,COc1cccc(-c2ccc(COc3ccc4c(c3)CCCC4CC(=O)O)cc2)c1 (stereo not drawn) [Example 7]
23,100 to 1000 nM,O=C(O)CC1CCCc2cc(OCc3cccc(-c4ccc(C(F)(F)F)cc4)c3)ccc21 (stereo not drawn) [Example 8]
24,100 to 1000 nM,Cc1ccc(-c2nc(C)c(COc3ccc4c(c3)CCCC4CC(=O)O)s2)cc1 (stereo not drawn) [Example 10]
25,100 to 1000 nM,CCOc1ccccc1-c1ccc(COc2ccc3c(c2)CCC3CC(=O)O)cc1 (stereo not drawn) [Example 12]
26,100 to 1000 nM,COc1cccc(-c2ccc(COc3ccc4c(c3)CCC4CC(=O)O)cc2)c1 (stereo not drawn) [Example 13]
27,100 to 1000 nM,Cc1ccc(-c2nc(C)c(COc3ccc4c(c3)CCC4CC(=O)O)s2)cc1 (stereo not drawn) [Example 14]
28,< 100 nM,"C=C1COc2cc(OCc3sc(-c4ccc(C)cc4)nc3C)ccc2C1CC(=O)O (stereo not drawn) [Example 34, 2-(7-((4-methyl-2-p-tolylthiazol-5-yl)methoxy)-3-methylene-3,4-dihydro-2H-chromen-4-yl)acetic acid]"

# From US20070244155A1 (AMGEN INC., priority 2006, published 2007)
